Measurements from patent US10125126B2, “N-cycloalkyl-N-[(heterocyclylphenyl)methylene]-(thio)carboxamide derivatives” (BAYER CROPSCIENCE AG, priority 2012, dated 2018).

Experiments:
[1] = log P by HPLC on a reversed-phase column (C 18), EEC Directive 79/831 Annex V.A8; format: physicochemical; details: for logP: HPLC on reversed-phase column (C 18), 40° C., 0.1% aqueous formic acid and acetonitrile, linear gradient 10% to 90% acetonitrile
Summary of the method: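 Column at 40° C; mobile phases 0.1% aqueous formic acid and acetonitrile, linear gradient 10% to 90% acetonitrile. Calibrated with unbranched alkan-2-ones (3 to 16 carbons) of known log P; values from retention times by linear interpolation between two successive alkanones.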

[2] = system: Blumeria graminis f.sp. hordei; assay: In vivo preventive test on Blumeria graminis (barley); details: 500 ppm of active ingredient, evaluated 7 days after inoculation
Protocol: (§1) In Vivo Preventive Test on Blumeria graminis (Barley) [table] To produce a suitable preparation of active compound, 1 part by weight of active compound or active compound combination is mixed with the stated amounts of solvent and emulsifier, and the concentrate is diluted with water to the desired concentration. To test for preventive activity, young plants are sprayed with the preparation of active compound or active compound combination at the stated rate of application. After the spray coating has been dried, the plants are dusted with spores of Blumeria graminis f.sp. hordei.

Leptosphaeria nodorum = assay: In vivo preventive test on Leptosphaeria nodorum (wheat); details: 500 ppm of active ingredient, evaluated 8 days after inoculation
Protocol: as §1, with “Leptosphaeria nodorum Test (Wheat)” for “Blumeria graminis (Barley)”, “sprayed” for “dusted”, “a spore suspension” for “spores”, “Leptosphaeria nodorum. The plants remain for 48 hours in an incubation cabinet at approximately 20° C. and a relative atmospheric humidity of approximately 100%.” for “Blumeria graminis f.sp. hordei.”

Pyrenophora teres = assay: In vivo preventive test on Pyrenophora teres (barley); details: 500 ppm of active ingredient; barley plants; 14 days after contamination
Summary of the method: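 Barley ("Plaisant") grown at 22° C was sprayed at the 1-leaf stage (10 cm) with active ingredient in acetone/tween/DMSO/water, with solvent-only controls. After 24 h, leaves were inoculated with Pyrenophora teres spores (12 000 spores per mL) from 12-day cultures. % efficacy versus controls graded 14 days post-contamination.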

Puccinia recondita = assay: In vivo preventive test on Puccinia recondita (brown rust on wheat); details: 500 ppm of active ingredient; wheat plants; 12 days after contamination
Summary of the method: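 Wheat plants ("Scipion") at 1-leaf stage, grown at 22° C, were sprayed with compound, then inoculated 24 h later with Puccinia recondita spores (100 000 spores per mL). Efficacy (%) graded 12 days after inoculation relative to solvent-treated controls.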

Septoria tritici = assay: In vivo preventive test on Septoria tritici (wheat); details: 500 ppm of active ingredient; wheat plants; 24 days after contamination
Summary of the method: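 Scipion wheat grown at 22° C, sprayed at 1-leaf stage (10 cm); controls received acetone/tween/DMSO/water without active. Inoculated 24 h later with S. tritici spores (500 000/mL), held 72 h at 18° C, 100% RH, then 21 days at 90% RH. % efficacy vs controls scored 24 days post-inoculation.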

Sphaerotheca fuliginea = assay: In vivo preventive test on Sphaerotheca fuliginea (powdery mildew on cucurbits); details: 500 ppm of active ingredient, gherkin plants, 12 days after contamination
Summary of the method: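 Gherkin plants ("Vert petit de Paris") grown at 24 °C were sprayed at cotyledon stage Z11; controls received acetone/tween/DMSO/water without active. Inoculation 24 h later by spraying cotyledons with 100 000 spores/mL. Efficacy (%) graded 12 days post-contamination versus controls.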

Uromyces appendiculatus = assay: In vivo preventive test on Uromyces appendiculatus (bean rust); details: 500 ppm of active ingredient; bean plants; 11 days after contamination
Summary of the method: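 Saxa bean plants at 2-leaf stage, grown at 24° C., sprayed preventively with compound; 24 h later inoculated with U. appendiculatus spores (150 000 spores per mL). Percent efficacy graded 11 days after inoculation versus solvent-treated controls.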

Venturia inaequalis = assay: In vivo preventive test on Venturia inaequalis (apples); details: 100 ppm of active ingredient, evaluated 10 days after inoculation
Protocol: In Vivo Preventive Test on Venturia inaequalis (apples) [table] To produce a suitable preparation of active compound, 1 part by weight of active compound is mixed with the stated amounts of solvent and emulsifier, and the concentrate is diluted with water to the desired concentration. To test for preventive activity, young plants are sprayed with the preparation of active compound at the stated rate of application. After the spray coating has dried on, the plants are inoculated with an aqueous conidia suspension of the causal agent of apple scab (Venturia inaequalis) and then remain for 1 day in an incubation cabinet at approximately 20° C. and a relative atmospheric humidity of 100%. The plants are then placed in a greenhouse at approximately 21° C. and a relative atmospheric humidity of approximately 90%.

Alternaria brassicae = assay: In vivo preventive test on Alternaria brassicae (leaf spot on radish); details: 500 ppm of active ingredient; radish plants; 6 days after contamination
Protocol: In Vivo Preventive Test on Alternaria brassicae (Leaf Spot on Radish) […] Radish plants (“Pernod Clair” variety), sown in starter cups on a 50/50 peat soil pozzolana substrate and grown at 17° C., are treated at the cotyledon stage by spraying with the active ingredient prepared as described above. Plants, used as controls, are treated with the mixture of acetone/tween/DMSO/water not containing the active material. After 24 hours, the plants are contaminated by spraying the cotyledons with an aqueous suspension of Alternaria brassicae spores (50 000 spores per mL). The spores are collected from a 15-day-old culture. The contaminated radish plants are incubated at 20° C. and at 100% relative humidity. Grading (% of efficacy) is carried out 6 days after the contamination, in comparison with the control plants.

Botrytis cinerea = assay: In vivo preventive test on Botrytis cinerea (grey mould); details: 500 ppm of active ingredient; gherkin plants; 4 to 5 days after contamination
Summary of the method: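 Gherkin plants at cotyledon stage Z11 were sprayed with compound, then inoculated 24 h later with Botrytis cinerea spores (50 000 spores per mL in nutrient solution). Plants were kept at 17° C and 90% RH, and percent efficacy versus solvent-treated controls was graded 4 to 5 days after contamination.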

Pyricularia oryzae = format: in vivo; details: 500 ppm of active ingredient; rice plants; 6 days after contamination

| SMILES | chromatographic logP ([1]; logP) | Efficacy [2] | Efficacy (Leptosphaeria nodorum) | Efficacy (Pyrenophora teres) | Efficacy (Puccinia recondita) | Efficacy (Septoria tritici) | pest or weed control at 500 ppm (Sphaerotheca fuliginea; Podosphaera fuliginea, 288 h, read-out: Efficacy) | Efficacy (Uromyces appendiculatus) | Efficacy (Venturia inaequalis) | logP [1] | Efficacy (Alternaria brassicae) | Efficacy (Botrytis cinerea) | Efficacy (Pyricularia oryzae) | Efficacy (Sphaerotheca fuliginea) |
| --- | --- | --- | --- | --- | --- | --- | --- | --- | --- | --- | --- | --- | --- | --- |
| Cn1nc(C(F)F)c(C(=O)N(Cc2cc(Cl)ccc2C2(C)CO2)C2CC2)c1F (centres unmarked) [I.4, N-[5-chloro-2-(2-methyloxiran-2-yl)benzyl]-N-cyclopropyl-3-(difluoromethyl)-5-fluoro-1-methyl-1H-pyrazole-4-carboxamide] | 3.19 | 94% | 80% | 96% | 98% | 100% | 100% | 100% | 100% |  |  |  |  |  |
| Cc1csc(-c2ccc(C(C)C)c(CN(C(=O)c3c(C(F)F)nn(C)c3F)C3CC3)c2)c1 [I.106] |  |  |  | 93% |  | 80% |  |  |  | 4.93 | 100% | 80% | 80% | 100% |
| COc1ccsc1-c1ccc(F)cc1CN(C(=O)c1c(C(F)F)nn(C)c1F)C1CC1 [I.119] |  |  |  | 71% | 100% | 90% |  | 100% |  | 3.63 |  |  | 70% | 100% |
| CC(C)c1ccc(-c2coc3ccccc23)cc1CN(C(=O)c1c(C(F)F)nn(C)c1F)C1CC1 [I.132] |  |  |  | 88% | 83% | 100% |  | 77% |  | 4.90 | 97% | 99% | 80% | 100% |
